Among the data in PubChem BioAssay (NCI) are GI50 and TGI values, retold here.

Common to all, as to assay: NCI tumour cell line growth inhibition, 48 h
Assay [1] concerns SNB-19 CNS.
The test system of assay [2] is UO-31 renal.
The subject of assay [3] is ACHN renal.
Assay [4] has as its system HOP-62 NSCLC.
In assay [5] the test system is SK-MEL-28 melanoma.
For assay [6], the system named is NCI-H522 lung.
Assay [7] deals with SK-MEL-2 melanoma.
Assay [8] concerns KM12 colon.
The subject of assay [9] is 786-0 renal.
For assay [10], the system named is HS 578T breast.

The structures appear in SMILES notation. Where “and” joins values, the source holds several entries; their conditions need not be identical. Equal values may be shown once.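 Five concentrations, 48 hours, 96-well plates. GI50 marks 50% less growth. Definition used: TGI = concentration required for complete inhibition of growth.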 Where only a bound is given, the exact number is not on record here.

In the case of `CC(=O)Nc1cccc(-n2c(=O)n(C3CC3)c(=O)c3c(Nc4ccc(I)cc4F)n(C)c(=O)c(C)c32)c1`, the GI50 is 5.11 µM and > 2.09 µM in [1]; 0.141 µM and 0.0654 µM in [2]; 0.49 µM and 0.291 µM in [3]; 0.0121 µM in assay [4]; < 0.01 µM and 0.0018 µM in [5]; 3.79 µM and > 2.33 µM in [6]. For the same molecule, the GI50 is < 0.01 µM and 0.002 µM in assay [7]; 0.0102 µM and 0.0225 µM in assay [8]; 4.02 µM and > 7.71 µM in assay [9]; 4.06 µM and 4.64 µM in [10]. Besides, the TGI in assay [1] is more than 100 µM; in assay [2], 10.1 µM and > 10 µM; in assay [3], more than 79.5 µM; in [4], more than 50.7 µM; in assay [6], 22 µM and > 10 µM; in assay [7] it was 0.0544 µM. The TGI in assay [8] is more than 53.7 µM; in assay [9], more than 57.7 µM; in [10], 43.8 µM and > 10 µM.

Regarding `CC(=O)OCC1OC(O[C@@H]2C[C@H]3C(C)(C)[C@H](OC(C)=O)CC[C@]3(C)[C@H]3CCC4=C([C@@H](C)C[C@@H](O)[C@H](O)C(C)(C)O)CC[C@@]4(C)[C@@]32C)C(O)C(O)C1O` (some centres not stated), the GI50 in assay [1] was 14.3 µM; in assay [2], 18.4 µM; in [3], 17.8 µM; in [4] it was 16.2 µM; in [5], 17 µM; in [6], 13.2 µM. For the same molecule, the GI50 was 16.3 µM in [7], 22.6 µM in assay [8], 18.2 µM in [9] and 15.2 µM in assay [10]. Further, the TGI in assay [1] was 27.7 µM; in assay [2], 32.7 µM; in assay [3], 31.9 µM; in [4], 30 µM; in assay [5], 30.9 µM; in assay [6], 27.2 µM. Besides, the TGI in [7] was 30.3 µM; in assay [8] it was 37.1 µM; in [9], 32.7 µM; in assay [10], 32.8 µM.

`O=C(NNc1nc2c(F)cccc2n2cccc12)c1cnccn1`: the GI50 in assay [1] was 0.545 µM; in assay [2], 0.216 µM; in [3], 0.25 µM; in assay [4], 0.365 µM; in assay [5], 0.65 µM; in assay [6], 0.817 µM. In addition, the GI50 was 1.4 µM in assay [7], 0.458 µM in assay [8], 0.426 µM in [9] and 7.05 µM in [10]. Besides, the TGI in [1] is more than 100 µM; in assay [2], 13.6 µM; in assay [3], 36 µM; in [4], 20 µM; in assay [5], 15.7 µM; in assay [6], 16.8 µM. Also, the TGI worked out at 37 µM in assay [7], 27.1 µM in assay [8], 19.3 µM in assay [9] and 80.4 µM in assay [10].

`O=C(CSc1nc2ccc([N+](=O)[O-])cc2[nH]1)Nc1ccc(F)c(Cl)c1`: the GI50 in assay [1] was 2.83 µM; in assay [2], 1.69 µM; in assay [3] it was 2.35 µM; in [4], 2.46 µM; in assay [5] it was 2.68 µM; in [6], 2.37 µM. For the same molecule, the GI50 was 2.22 µM in assay [7], 2.83 µM in assay [8], 2.84 µM in assay [9] and 2.45 µM in [10]. Also, the TGI in assay [1] came to 13.1 µM; in [2] it was 7.8 µM; in assay [3], 7.93 µM; in [4] it was 9.89 µM; in assay [5], 12.9 µM; in assay [6] it was 12.4 µM. Moreover, the TGI in assay [7] was found to be 6.35 µM; in assay [8] it was 12.2 µM; in [9], 11.8 µM; in [10] it was 9.63 µM.

On to `O=C(c1ccc2ccccc2c1)c1c(C(F)(F)F)n([O-])c2cc(Cl)c(Cl)cc2[n+]1=O`, for which the GI50 in assay [2] was 1.51 µM; in [3], 1.59 µM; in assay [4], 1.64 µM; in [5] it was 1.74 µM; in [6], 1.49 µM; in assay [7] it was 1.64 µM. Also, the results for the GI50 in assay [8], in assay [9] and in assay [10] were 1.53 µM, 1.69 µM and 1.85 µM, respectively. Further, the TGI in assay [2] is 2.83 µM; in assay [3], 2.94 µM; in assay [4] it was 3.03 µM; in assay [5], 3.57 µM; in [6] it was 2.81 µM; in [7], 2.99 µM. Moreover, the TGI was determined as 2.86 µM in assay [8], 3.06 µM in assay [9] and 4.15 µM in [10].

With `C=C1C(=O)O[C@H]2[C@H]1CC/C(CNC(=O)c1c[nH]c3ccc(F)cc13)=C\CC[C@@]1(C)O[C@@H]21`, the GI50 in assay [1] is 11.9 µM; in [2], 1.14 µM; in assay [3] it was 1.04 µM; in assay [4], 4.12 µM; in [5] it was 1.33 µM; in assay [6], 0.282 µM. Besides, the GI50 was 1.42 µM in assay [7], 2.69 µM in assay [8], 1.33 µM in assay [9] and 2.65 µM in assay [10]. The TGI was determined as 26.1 µM in assay [1]; 2.48 µM in assay [2]; 2.38 µM in assay [3]; 19.7 µM in [4]; 3.16 µM in assay [5]; 1.31 µM in assay [6]. In addition, the TGI is 3.09 µM in assay [7], 10.2 µM in [8], 2.85 µM in assay [9] and 13.1 µM in assay [10].

As for `Cc1nn(-c2ccc(S(=O)(=O)[O-])cc2)c([O-])c1N=[N+](C)c1ccc(-c2ccc(N=Nc3ccc4c(S(=O)(=O)[O-])cc(S(=O)(=O)[O-])c(N)c4c3[O-])c([O-])c2)cc1[O-].[Cu+2].[Cu+2].[Na+]`, the GI50 is more than 100 µM in [1]; 3.19 µM in assay [2]; more than 100 µM in assay [3]; more than 100 µM in [4]; more than 100 µM in assay [5]; more than 100 µM in assay [6]. Further, the GI50 in assay [7], in [8], in assay [9] and in assay [10] was more than 100 µM throughout. Also, the TGI in assay [1], in assay [2], in assay [3], in assay [4], in [5] and in assay [6] was more than 100 µM throughout. In addition, the TGI in [7], in assay [8], in [9] and in [10] was more than 100 µM in each case.
